Usually IC50 stands for the midpoint of a concentration-inhibition curve.

Eleven molecules from US8088941B2, “Glycogen synthase kinase-3 inhibitors” (Tel Aviv University Future Technology Development L.P., priority 2001, dated 2012) can be followed below.

For assay [1], the target named is T1, recombinant rabbit GSK-3β (Oryctolagus cuniculus, UniProt G1T8E2). As to the kind of experiment: In vitro GSK-3 inhibition assay with PGS-1 peptide substrate. In kind it is biochemical. To be noted: for GSK-3 inhibition activity: preliminary inhibition assay, FIG. 5. As for the experimental part: (§1) In vitro inhibition assays: Purified recombinant rabbit GSK-3β (Eldar-Finkelman et al., 1996) was incubated with peptide substrate PGS-1 ([…](p)EDEEE) (SEQ ID NO:1) or peptide substrate p9CREB (SEQ ID NO:2) and with phenyl phosphate, pyridoxal phosphate (P-5-P), GSC-1, GSC-2, GSC-3, GSC-4, GSC-5, GSC-6, GSC-7 or GSC-21 (structural formulas are depicted in FIG. 3), at indicated concentrations. The reaction mixture included Tris 50 mM (pH=7.3), 10 mM MgAc, ^32P[γ-ATP] (100 μM), 0.01% β-mercaptoethanol, and was incubated for 10 minutes at 30° C. Reactions were spotted on phosphocellulose paper (p81), washed with 100 mM phosphoric acid, and counted for radioactivity (as described in Eldar-Finkelman et al., 1996).
In vitro inhibition assays: In a preliminary inhibition assay, the GSK-3 inhibition activity of the known compounds phenyl phosphate, pyridoxal phosphate, GSC-1, GSC-2 and GSC-3 was tested as described hereinabove.
In an additional inhibition assay, the GSK-3 inhibition activity of GSC-1, GSC-2, GSC-3, GSC-4, and GSC-21 was tested. The ability of GSK-3 to phosphorylate PGS-1 peptide substrate was measured in the presence of indicated concentrations of these compounds. The results, presented in FIG. 6, represent the percentage of GSK-3 activity as compared with a control incubation without inhibitors and are mean of 2 independent experiments±SEM, where each point was assayed in triplicate.

In assay [2] the target is T1, recombinant rabbit GSK-3β. As to the kind of experiment: In vitro GSK-3 inhibition assay with p9CREB peptide substrate. In kind it is biochemical. As for the experimental part:
as §1
In still an additional assay, the GSK-3 inhibition activity of GSC-1, GSC-2, GSC-3, GSC-4, GSC-5, GSC-6, and GSC-7 was tested. The ability of GSK-3 to phosphorylate p9CREB peptide substrate was measured in the presence of indicated concentrations of these compounds. The results, presented in FIGS. 7a and 7b, represent the percentage of GSK-3 activity as compared with a control incubation without inhibitors and are mean of 2 independent experiments±SEM, where each point was assayed in triplicate.
The kinetic nature of the inhibitors was studied by measuring the initial velocity as a function of the substrate concentration at several inhibitor concentrations. Lineweaver-Burk plots of the GSK-3 inhibition by these inhibitors confirmed the assumption that these are substrate-competitive inhibitors (data not shown). FIG. 8 presents the Lineweaver-Burk plot of the GSK-3 inhibition by gsc-7, as an exemplary inhibitor, represented by phosphate incorporation into p9CREB peptide substrate (CPM). […] Each point is a mean of duplicated sample.
The ability of GSK-3 to phosphorylate p9CREB peptide substrate was measured in the presence of indicated concentrations of MP molecules, using the protocol described hereinabove in Example 3. The results, presented in FIG. 19, represent the percentage of GSK-3 activity in control incubation in which inhibitors were omitted. Results are mean of 2 independent experiments±SEM, where each point was assayed in duplicate.

The next assay has as its target CDK-2 (Homo sapiens, UniProt P24941). Put plainly: CDK-2 kinase activity with histone H1 substrate (selectivity). The format is biochemical. To be noted: final concentration of 2 mM, FIG. 9. As to the method:
The effect of GSC-4, GSC-5 and GSC-7 (100 and 200 μM) on other protein kinases was tested by incubating CDK-2 (1 unit) with a reaction mixture similar to that described hereinabove and containing histone H1 substrate (5 μg). The reactions were boiled with SDS sample buffer, separated on gel electrophoresis and autoradiographed.
The selectivity of the novel compounds towards GSK-3 was measured by evaluating the inhibition of CDK-2, a kinase closely related to GSK-3. Thus, CDK-2 activity was assayed in the presence of ^32P[γ-ATP] and histone H1 as a substrate. GSC-4, GSC-5 and GSC-7 were added at a final concentration of 2 mM.

The subject of the next assay is Mice adipocytes. As to the kind of experiment: Glucose uptake in isolated adipocytes. The settings on record: mouse primary adipocytes, 2.5 hours. The format is cell-based. As for the experimental part:
Glucose uptake in isolated adipocytes: Mice adipocytes were isolated from epididymal fat pad by digestion with 0.8 mg/ml collagenase (Worthington Biochemical) as described previously (Lawrence et al., 1977). Digested fat pads were passed through nylon mesh and cells were washed 3 times with Krebs-bicarbonate buffer (pH=7.4) containing 1% bovine serum albumin (Fraction V, Boehringer Mannheim, Germany), 10 mM HEPES (pH=7.3), 5 mM glucose and 200 nM adenosine. Cells were incubated with GSC-4 and GSC-21 at indicated concentrations for 2.5 hours, followed by addition of 2-deoxy [^3H] glucose (0.5 μci/vial) for 10 minutes. The assay was terminated by centrifugation of cells through dinonylphthalate (ICN, USA). ^3H was thereafter quantitated by liquid scintillation analyzer (Packard). Nonspecific uptake of 2-deoxy-[^3H] glucose was determined by the addition of cytochalasin B (50 μM) 30 minutes prior to the addition of radioactive material.
Glucose Uptake: The ability of the newly designed compounds GSC-4 and GSC-21 to promote glucose uptake was tested in mouse primary adipocytes as described hereinabove. The relative [^3H] 2-deoxy glucose incorporation observed in non-treated adipocytes was normalized to 1 unit and the values obtained for [^3H] 2-deoxy glucose in adipocytes treated with GSC-4 or GSC-21 are presented as fold activation over cells treated with the peptide control, and are the mean of 6 independent experiments±SEM, where each point was assayed in triplicate.

The subject of a further assay is glycogen synthase. Put plainly: Activation of glycogen synthase in C2C12 cells. The format is cell-based. To be noted: 2.5 hours, FIG. 10. As to the method:
Activation of glycogen synthase by GSK-3 inhibitors: Activation of glycogen synthase can serve as a good marker for inhibition of GSK-3. […] Thus, activation of glycogen synthase by GSC-5 and GSC-7 was tested in C2C12 myotubes. C2C12 cells were treated with GSC-5 and GSC-7 for 2.5 hours at indicated concentrations and lysate supernatants were thereafter assayed for glycogen synthase activity. The activity of glycogen synthase in cells treated with vehicle DMSO (0.1% DMSO) was normalized to 1 unit and the values for glycogen synthase activity observed in cells treated with GSK-3 inhibitors are presented as fold stimulation over the cells treated with vehicle […].
Activation of glycogen synthase by GSK-3 inhibitors: Activation of glycogen synthase activity in C2C12 cells treated with GSC-5 and GSC-7 was assayed as described hereinabove. The activity of glycogen synthase in cells treated with vehicle DMSO (0.1% DMSO) was normalized to 1 unit and the values for glycogen synthase activity observed in cells treated with GSK-3 (GS4 (hollow circles) GS6 (filled circles) are presented as fold stimulation over the cells treated with vehicle 0.1% HCL.

In another assay the target is GSK-3 (Oryctolagus cuniculus, UniProt A0A5F9DUX8). As to the kind of experiment: Time course analyses of peptide phosphorylation by GSK-3. The format is biochemical.
The mark [3] stands for this setting: MP molecules, p9CREB peptide substrate, FIG. 19.

Where a name gives a salt, the structure may show the parent alone. Read-outs that look alike come from different tables or passages of the source.

T1 sequence (G1T8E2 1-432): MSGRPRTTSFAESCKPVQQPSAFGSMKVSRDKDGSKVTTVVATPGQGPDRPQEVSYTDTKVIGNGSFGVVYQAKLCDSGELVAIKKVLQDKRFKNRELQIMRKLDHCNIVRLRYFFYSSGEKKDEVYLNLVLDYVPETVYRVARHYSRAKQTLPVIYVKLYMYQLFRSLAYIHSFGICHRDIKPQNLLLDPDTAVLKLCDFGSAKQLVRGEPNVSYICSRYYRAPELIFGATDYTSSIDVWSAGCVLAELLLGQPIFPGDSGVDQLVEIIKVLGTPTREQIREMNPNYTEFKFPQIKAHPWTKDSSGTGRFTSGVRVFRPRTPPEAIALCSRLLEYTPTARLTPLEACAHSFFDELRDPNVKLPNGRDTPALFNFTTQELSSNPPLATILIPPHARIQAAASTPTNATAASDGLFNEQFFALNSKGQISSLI
GSK-3, sequence (A0A5F9DUX8 entry or part of it): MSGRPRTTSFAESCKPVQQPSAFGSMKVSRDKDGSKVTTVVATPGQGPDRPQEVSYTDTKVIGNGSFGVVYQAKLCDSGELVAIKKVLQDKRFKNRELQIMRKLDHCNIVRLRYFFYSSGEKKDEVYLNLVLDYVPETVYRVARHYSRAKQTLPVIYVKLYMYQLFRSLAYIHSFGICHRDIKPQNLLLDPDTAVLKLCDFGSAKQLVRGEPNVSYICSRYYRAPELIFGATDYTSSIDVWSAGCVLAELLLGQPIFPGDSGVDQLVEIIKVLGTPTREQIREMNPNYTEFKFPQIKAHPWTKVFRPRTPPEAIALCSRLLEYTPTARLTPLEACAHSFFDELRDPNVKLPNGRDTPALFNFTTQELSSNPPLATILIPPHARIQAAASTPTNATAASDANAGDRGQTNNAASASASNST

On to `Cc1ccc(COP(=O)(O)O)cc1` [GSC-2, p-methyl benzyl phosphate], for which, in assay [1], the GSK-3 inhibition activity entry was “exerted an inhibition activity”.

Turning to `N=C(N)Nc1cccc(COP(=O)(O)O)c1` [GSC-4, 3-guanidinobenzyl phosphate], the IC50 in assay [2] (p9CREB peptide substrate, FIGS. 7a-b, most active compounds) came to 500 µM. Moreover, at CDK-2, the “Inhibition of histone H1 phosphorylation by CDK-2” value (“Inhibition … by CDK-2” below) was “no inhibition of histone H1 phosphorylation was observed”. In addition, in the assay on Mice adipocytes (10 μM), the “Glucose uptake ([3H] 2-deoxy glucose incorporation), fold activation” value is reported as approximately 2 fold. Besides, in assay [1] (PGS-1 peptide substrate, FIG. 6), the “GSK-3 inhibition activity (ranking)” value is given as “most active compounds”.

For `N=C(N)NCc1cccc(COP(=O)(O)O)c1` [GSC-5, 3-(guanidinomethy)benzyl phosphate], the “Glycogen synthase activity, fold stimulation over vehicle” value in the assay on glycogen synthase came out at 1.5 fold. In addition, on CDK-2, the “Inhibition … by CDK-2” value is given as “no inhibition of histone H1 phosphorylation was observed”.

As for `N=C(N)Nc1cc(COP(=O)(O)O)cc(NC(=N)N)c1` [GSC-7, 3,5-bisguanidino benzyl phosphate], the IC50 in assay [2] turned out to be 500 µM. In addition, the “Kinetic nature of inhibition (Lineweaver-Burk plot)” value in assay [2] (phosphate incorporation into p9CREB, FIG. 8) is given as “competitive specific inhibitor”. Further, the “Glycogen synthase activity, fold stimulation over vehicle” value with glycogen synthase was 1.8 fold. In addition, the “Inhibition … by CDK-2” value on CDK-2 is “no inhibition of histone H1 phosphorylation was observed”.

Turning to `NCCc1cc(CCN)cc(COP(=O)(O)O)c1` [GSC-21, 3,5-bis(2-aminoethyl)benzyl phosphate], the “Glucose uptake ([3H] 2-deoxy glucose incorporation), fold activation” value is 1.7 fold in the assay with Mice adipocytes (0.5 μM) and 2.5 fold with Mice adipocytes (5 μM).

Take `N=C(N)Nc1cccc(-c2cn(-c3cccc(COP(=O)(O)O)c3)nn2)c1` [MP-1, 3-(4-(3-guanidinophenyl)-1,2,3-triazol-1-yl)benzyl phosphoric acid hydrochloride]: in assay [2] (setting [3]), the IC50 was approximately 1000 µM.

As to `N=C(N)Nc1ccc(-c2cn(-c3cccc(COP(=O)(O)O)c3)nn2)cc1` [MP-4, 3-(4-(4-guanidinophenyl)-1,2,3-triazol-1-yl)benzyl phosphoric acid hydrochloride], in assay [2] (setting [3]), the IC50 was approximately 1000 µM.

On to `O=P(O)(O)Oc1ccccc1` [phenyl phosphate, reference compound], for which the GSK-3 inhibition activity entry in assay [1] was “exerted an inhibition activity”.

Take `Cc1ncc(COP(=O)(O)O)c(C=O)c1O` [pyridoxal phosphate, reference compound]: the GSK-3 inhibition activity result in assay [1] is on record as “exerted an inhibition activity”.

Take ILSRRPEYR [9ECREB]: in the assay with GSK-3, the “Phosphorylation of peptide by GSK-3 (substrate)” value is recorded as “completely failed to be phosphorylated”.

As to ILSRRPSYR [9CREB], the “Phosphorylation of peptide by GSK-3 (substrate)” value with GSK-3 is “completely failed to be phosphorylated”.
